From ChEMBL document CHEMBL1201862, “PubChem BioAssay data set” (2004)
The source made the active and inactive calls.

Key:
Streptokinase A = target: T1, Streptokinase A (Streptococcus pyogenes serotype M1, UniProt P10520); test: viability-normalized secreted streptokinase activity reduction – plasminogen activation absorbance, OD405, dose response (AID 1914); assay type: functional, Streptococcus pyogenes M1 GAS;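 note: secreted streptokinase activity via plasminogen activation per viability signal from cell pellet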
T1 sequence (P10520 whole entry): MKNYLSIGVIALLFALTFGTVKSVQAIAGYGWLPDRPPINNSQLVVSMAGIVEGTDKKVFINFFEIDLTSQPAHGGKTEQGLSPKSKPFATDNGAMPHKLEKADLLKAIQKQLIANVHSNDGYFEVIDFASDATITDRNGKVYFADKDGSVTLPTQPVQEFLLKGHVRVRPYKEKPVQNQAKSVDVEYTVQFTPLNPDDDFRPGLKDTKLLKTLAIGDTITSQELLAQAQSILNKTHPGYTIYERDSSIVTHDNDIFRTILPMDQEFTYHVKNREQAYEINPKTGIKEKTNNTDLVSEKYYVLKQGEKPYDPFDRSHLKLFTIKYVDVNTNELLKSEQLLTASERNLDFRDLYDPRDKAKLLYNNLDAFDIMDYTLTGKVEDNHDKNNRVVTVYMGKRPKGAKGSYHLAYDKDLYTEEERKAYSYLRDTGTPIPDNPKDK

Streptococcus = test: GAS UMAA2166 growth inhibition – luminescence, BacTiterGlo, counter-screen for streptokinase expression inhibitor project, dose response (AID 1915); assay type: functional, organism-based;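 note: potency for reduction of bacterial viability or growth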
[1] = Luminescence Cell-Based Dose Response HTS to Identify Inhibitors of 5'UTR Stem-Loop Driven Prion Protein mRNA Translation in H4 Neuroglioblastoma Cells. [Related pubchem assays: 1827 (Project Summary), 1813 (Primary HTS)]; assay type: functional
[2] = alpha-synuclein stem-loop luciferase translation blockers – H4 neuroglioma cells, luminescence, confirmation (AID 1988); assay type: functional, cell-based
[3] = tested on: Streptococcus sp. 'group A'; test: Streptococcus pyogenes SK(-)GAS viability under kanamycin – luminescence, BacTiterGlo, confirmation, counter-screen for streptokinase expression inhibitor project, dose response (AID 1900); assay type: functional, organism-based
Cytochrome P450 3A4 = Cytochrome P450 3A4 (Homo sapiens, UniProt P08684);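 note: CYP3A4 tested as one member of a cytochrome P450 panel screen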
Chain of Cytochrome P450 3A4 (P08684 whole entry): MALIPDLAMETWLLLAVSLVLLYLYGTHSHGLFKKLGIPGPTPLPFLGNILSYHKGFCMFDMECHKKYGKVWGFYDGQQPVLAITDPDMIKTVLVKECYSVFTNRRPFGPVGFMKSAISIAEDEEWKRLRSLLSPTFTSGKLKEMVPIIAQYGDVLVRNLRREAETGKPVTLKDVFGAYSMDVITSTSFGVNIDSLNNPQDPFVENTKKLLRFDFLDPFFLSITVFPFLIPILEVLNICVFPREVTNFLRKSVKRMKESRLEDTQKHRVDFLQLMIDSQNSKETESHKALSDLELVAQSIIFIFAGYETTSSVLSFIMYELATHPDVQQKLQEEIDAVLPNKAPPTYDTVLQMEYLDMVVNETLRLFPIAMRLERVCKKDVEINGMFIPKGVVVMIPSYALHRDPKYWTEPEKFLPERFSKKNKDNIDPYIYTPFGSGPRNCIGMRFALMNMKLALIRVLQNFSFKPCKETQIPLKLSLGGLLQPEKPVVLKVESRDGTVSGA

Cytochrome P450 2D6 = Cytochrome P450 2D6 (Homo sapiens, UniProt P10635);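 note: CYP2D6 member of a cytochrome P450 panel assay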
Chain of Cytochrome P450 2D6 (P10635 whole entry): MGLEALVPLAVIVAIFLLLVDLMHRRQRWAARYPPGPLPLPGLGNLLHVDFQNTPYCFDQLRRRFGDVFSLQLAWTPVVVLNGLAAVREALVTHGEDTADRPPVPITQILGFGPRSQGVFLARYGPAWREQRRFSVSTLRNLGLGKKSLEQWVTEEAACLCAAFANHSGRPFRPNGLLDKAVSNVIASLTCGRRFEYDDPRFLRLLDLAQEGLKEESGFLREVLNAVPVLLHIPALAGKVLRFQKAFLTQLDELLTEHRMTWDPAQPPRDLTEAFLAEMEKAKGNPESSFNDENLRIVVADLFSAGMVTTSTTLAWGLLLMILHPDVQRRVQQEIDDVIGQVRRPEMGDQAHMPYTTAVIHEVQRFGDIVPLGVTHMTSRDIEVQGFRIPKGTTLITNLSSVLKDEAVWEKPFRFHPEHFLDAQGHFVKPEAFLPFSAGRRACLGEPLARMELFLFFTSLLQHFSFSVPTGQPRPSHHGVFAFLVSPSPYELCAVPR

Cytochrome P450 2C19 = Cytochrome P450 2C19 (Homo sapiens, UniProt P33261); test: Cytochrome panel assay with activity outcomes. Panel member name: p450-cyp2c19 Compounds with AC50 equal or less than 10 uM are considered active; assay type: functional
Chain of Cytochrome P450 2C19 (P33261 whole entry): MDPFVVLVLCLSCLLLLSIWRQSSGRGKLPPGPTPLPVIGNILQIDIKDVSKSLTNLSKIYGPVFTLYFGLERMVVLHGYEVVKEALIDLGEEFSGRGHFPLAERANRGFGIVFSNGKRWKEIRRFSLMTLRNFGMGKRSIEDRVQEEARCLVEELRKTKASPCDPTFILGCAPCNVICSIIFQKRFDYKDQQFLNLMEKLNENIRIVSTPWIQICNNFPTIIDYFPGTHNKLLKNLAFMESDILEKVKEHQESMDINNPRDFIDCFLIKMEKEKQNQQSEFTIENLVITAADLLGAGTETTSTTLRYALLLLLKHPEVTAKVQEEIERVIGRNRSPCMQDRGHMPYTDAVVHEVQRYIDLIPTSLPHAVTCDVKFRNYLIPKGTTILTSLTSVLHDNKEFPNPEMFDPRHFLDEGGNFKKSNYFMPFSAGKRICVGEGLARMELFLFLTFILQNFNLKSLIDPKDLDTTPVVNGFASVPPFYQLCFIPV

[4] = target: T2, Heat shock factor protein 1 (Mus musculus, UniProt P38532); test: decrease of HSF1-responsive luciferase luminescence – cell-based, NIH3T3, dose retest, confirmation (AID 2382); assay type: functional;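 note: NIH3T3 fibroblasts with HSF1-driven luciferase reporter stressed by proteasome inhibitor MG132; luminescence from HSF1-driven luciferase expression after 8 hours of MG132 stress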
T2 sequence (P38532 whole entry): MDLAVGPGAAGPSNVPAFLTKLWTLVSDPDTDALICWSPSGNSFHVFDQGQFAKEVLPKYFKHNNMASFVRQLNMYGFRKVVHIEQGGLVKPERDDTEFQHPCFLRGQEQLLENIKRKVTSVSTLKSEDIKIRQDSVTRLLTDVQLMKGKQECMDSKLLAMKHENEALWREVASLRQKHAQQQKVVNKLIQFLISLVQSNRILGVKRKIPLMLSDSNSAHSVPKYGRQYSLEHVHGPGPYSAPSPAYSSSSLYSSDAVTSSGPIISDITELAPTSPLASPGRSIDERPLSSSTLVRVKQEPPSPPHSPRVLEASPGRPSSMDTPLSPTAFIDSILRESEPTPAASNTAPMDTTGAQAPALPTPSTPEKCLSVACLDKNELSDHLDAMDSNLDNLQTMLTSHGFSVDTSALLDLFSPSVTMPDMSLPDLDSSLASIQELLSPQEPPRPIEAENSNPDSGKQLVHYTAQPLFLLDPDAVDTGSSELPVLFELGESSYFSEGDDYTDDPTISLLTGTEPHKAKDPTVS

Cytochrome P450 1A2 = target: T3, Cytochrome P450 1A2 (Homo sapiens, UniProt P05177);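 note: PubChem cytochrome P450 panel assay, CYP1A2 panel member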
T3 sequence (P05177 whole entry): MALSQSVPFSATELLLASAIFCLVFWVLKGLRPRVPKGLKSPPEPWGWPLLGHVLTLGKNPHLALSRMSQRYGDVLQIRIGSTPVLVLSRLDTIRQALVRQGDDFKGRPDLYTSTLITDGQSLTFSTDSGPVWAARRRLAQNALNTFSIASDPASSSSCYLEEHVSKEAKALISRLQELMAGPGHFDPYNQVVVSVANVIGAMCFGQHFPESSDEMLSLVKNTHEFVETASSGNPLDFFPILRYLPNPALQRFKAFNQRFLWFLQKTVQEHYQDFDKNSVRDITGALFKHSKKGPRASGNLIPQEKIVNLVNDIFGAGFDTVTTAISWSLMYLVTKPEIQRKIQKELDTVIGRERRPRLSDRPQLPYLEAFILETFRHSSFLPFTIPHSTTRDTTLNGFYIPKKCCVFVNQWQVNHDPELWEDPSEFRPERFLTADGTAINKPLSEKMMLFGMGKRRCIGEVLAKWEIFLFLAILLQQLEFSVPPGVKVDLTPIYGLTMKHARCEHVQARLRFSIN

Cytochrome P450 2C9 = Cytochrome P450 2C9 (Homo sapiens, UniProt P11712)
Chain of Cytochrome P450 2C9 (P11712 whole entry): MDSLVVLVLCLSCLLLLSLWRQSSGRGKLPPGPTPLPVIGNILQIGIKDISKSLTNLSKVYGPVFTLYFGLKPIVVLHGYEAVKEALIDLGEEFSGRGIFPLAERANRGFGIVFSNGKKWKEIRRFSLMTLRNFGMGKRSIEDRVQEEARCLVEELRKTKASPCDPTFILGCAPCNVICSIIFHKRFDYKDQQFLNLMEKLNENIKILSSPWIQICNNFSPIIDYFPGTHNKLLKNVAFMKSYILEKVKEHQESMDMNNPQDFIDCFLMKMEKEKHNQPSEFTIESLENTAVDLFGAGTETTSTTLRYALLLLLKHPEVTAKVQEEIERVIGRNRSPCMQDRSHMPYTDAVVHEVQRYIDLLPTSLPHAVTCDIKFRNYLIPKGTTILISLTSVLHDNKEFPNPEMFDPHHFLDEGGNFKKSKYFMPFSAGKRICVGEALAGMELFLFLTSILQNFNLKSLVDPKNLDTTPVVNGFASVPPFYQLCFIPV

COc1ccc(Br)cc1/C=C/c1ccc2cccc(O)c2n1
EC50 (Streptokinase A): > 150 µM (not active) | EC50 (Streptococcus): 6.48 µM (active) | EC50 [1]: 13.4 µM (active) | EC50 [2]: > 120 µM (not active) | EC50 [3]: 0.246 µM (active)

c1cc(CNCCN2CCNCC2)ccn1
AC50 (Cytochrome P450 3A4): 5.01 µM (inconclusive) | AC50 (Cytochrome P450 2D6): 3.98 µM (inconclusive)

CN(C)c1ccc(-c2ccc3ncnc(N4CCNCC4)c3c2)cc1
AC50 (Cytochrome P450 2C19; read-out: AC50): 25.1 µM (inconclusive)

Cc1cc(C)cc(NC(=O)CC(=N)NO)c1
AC50 (Cytochrome P450 3A4): 28.2 µM (inconclusive)

COc1ccc(-n2nc3ccccc3n2)cc1
EC50 [4]: > 195 µM (not active)

CCCN1C(=O)C(Cc2nc3ccccc3c(=O)n2C)c2ccccc21 (centres undefined)
AC50 (Cytochrome P450 2C19; read-out: AC50): 0.0562 µM (inconclusive) | AC50 (Cytochrome P450 2D6): 17.8 µM (inconclusive) | AC50 (Cytochrome P450 1A2): 25.1 µM (inconclusive)

Cc1cccc(OCCCC(=O)Nc2ccccc2C(F)(F)F)c1
AC50 (Cytochrome P450 2D6): 25.1 µM (inconclusive)

CN(C)CCOC(=O)C1(c2ccccc2)CCOCC1
AC50 (Cytochrome P450 2C19; read-out: AC50): 20 µM (inconclusive)

c1cncc(-c2cc(-c3cc(-c4cccnc4)[nH]n3)n[nH]2)c1
AC50 (Cytochrome P450 3A4): 5.01 µM (inconclusive) | AC50 (Cytochrome P450 1A2): 0.501 µM (inconclusive)

Cc1cc(NC(=O)Nc2ccc(F)cc2)no1
AC50 (Cytochrome P450 2C9): 15.8 µM (inconclusive)

Cn1c(=O)c2c(nc(Sc3ncnn3CC(=O)N3CCOCC3)n2C)n(C)c1=O
EC50 [4]: > 195 µM (not active)

COC(=O)c1cn(NC(=O)CCC2CCCC2)c(=O)c2ccccc12
EC50 [4]: > 195 µM (not active)

NS(=O)(=O)c1ccc(/N=N\c2cccnc2O)cc1
AC50 (Cytochrome P450 2C19; read-out: AC50): 3.98 µM (inconclusive) | AC50 (Cytochrome P450 2C9): 3.16 µM (inconclusive) | AC50 (Cytochrome P450 1A2): 0.501 µM (inconclusive)

O=C(O)c1csc(-c2ccccc2)n1
EC50 [4]: > 195 µM (not active)

Cc1ccc(SCc2ccc(C(=O)NCc3ccncc3)cc2)cc1
AC50 (Cytochrome P450 3A4): 7.08 µM (inconclusive)

Cc1nc2cnc(Oc3ccccc3)nc2n(C2CC2)c1=O
AC50 (Cytochrome P450 3A4): 25.1 µM (inconclusive) | AC50 (Cytochrome P450 2C9): 12.6 µM (inconclusive)

N=c1ccn2c(n1)O[C@H]1[C@@H](OP(=O)(O)O)[C@H](CO)O[C@H]12
AC50 (Cytochrome P450 2C19): inconclusive

C#CCCCO/N=C1/C[C@@H](O)[C@@H](O)[C@@H]2[C@@H]3C(=O)N(Cc4ccccc4)C(=O)[C@H]3CC[C@@H]12
AC50 (Cytochrome P450 2C19): inconclusive

CCCOc1ccc2cc(C(=O)NCc3ccccc3)c(=O)oc2c1
EC50 [4]: 42 µM (active)

O=C(O)[C@H]1CCCC[C@@H]1c1c2ccc(=O)c(O)c-2oc2c(O)c(O)ccc12
AC50 (Cytochrome P450 2C19; read-out: AC50): 2.51 µM (inconclusive) | AC50 (Cytochrome P450 2C9): 6.31 µM (inconclusive)

O=C(CCCC(=O)N(c1ccc2c(c1)OCCO2)C(C(=O)NC1CCCCC1)c1ccc(Cl)cc1)Nc1ccccn1 (centres undefined)
EC50 [4]: > 195 µM (not active)

CN(C)c1ncc2nc(-c3cccs3)c(=O)n(C)c2n1
AC50 (Cytochrome P450 3A4): 31.6 µM (inconclusive)

CCOC(=O)C1=C(C)NC(=O)N[C@@H]1c1coc2cc(C)cc(C)c2c1=O
AC50 (Cytochrome P450 3A4): 3.98 µM (inconclusive) | AC50 (Cytochrome P450 1A2): 2.51 µM (inconclusive)

COC(=O)[C@@]1(Cc2ccc(F)cc2)[C@H]2c3cc(C(=O)N(C)C)n(Cc4c(CO)ncc(C)c4O)c3C[C@H]2CN1C(=O)c1ccccc1
AC50 (Cytochrome P450 2C19; read-out: AC50): 25.1 µM (inconclusive) | AC50 (Cytochrome P450 1A2): 25.1 µM (inconclusive)

CCOC(=O)c1nnc(O)c2ccccc12
EC50 [4]: > 195 µM (not active)

CCCn1c(N)c(C(=O)CSc2nc3ccccc3c(=O)n2Cc2ccccc2)c(=O)[nH]c1=O
EC50 [4]: > 195 µM (not active)

Cc1noc(NS(=O)(=O)c2ccc(NC(=O)CC34CC5CC(CC(Br)(C5)C3)C4)cc2)c1C
AC50 (Cytochrome P450 2C19): inconclusive | AC50 (Cytochrome P450 2C9): 22.4 µM (inconclusive)

Cc1nc(SCC(=O)Nc2ccc(N3CCOCC3)cc2)nc(C)c1C
AC50 (Cytochrome P450 2C9): 12.6 µM (inconclusive)

CC(=O)c1ccc(NC(=O)C2CC(c3ccc(F)cc3)=NO2)cc1 (centres undefined)
AC50 (Cytochrome P450 2C19; read-out: AC50): 17.8 µM (inconclusive) | AC50 (Cytochrome P450 2C9): 1.12 µM (inconclusive) | AC50 (Cytochrome P450 1A2): 0.00794 µM (inconclusive)

Fc1ccc(CSc2ncnc3sc4c(c23)CCCC4)cc1
AC50 (Cytochrome P450 3A4): 35.5 µM (inconclusive) | EC50 (Streptokinase A): 13.3 µM (active) | EC50 (Streptococcus): > 150 µM (not active) | EC50 [3]: 22.8 µM (active)

CC(=O)Nc1cccc(-n2c(=O)n(Cc3ccccc3)c(=O)c3[nH]cnc32)c1
EC50 [4]: > 195 µM (not active)

O=c1cnc2cnc(Oc3ccccc3)nc2n1Cc1cccs1
AC50 (Cytochrome P450 3A4): 15.8 µM (inconclusive) | AC50 (Cytochrome P450 2D6): 39.8 µM (inconclusive)

CS(=O)(=O)N1CCC2(CC1)CN(Cc1ccncc1)C2
AC50 (Cytochrome P450 3A4): 31.6 µM (inconclusive) | AC50 (Cytochrome P450 2D6): 20 µM (inconclusive)

CC(C)Oc1ccc(N2CC(C(=O)OCC(=O)NCc3ccccc3)CC2=O)cc1 (centres undefined)
AC50 (Cytochrome P450 2D6): 22.4 µM (inconclusive) | AC50 (Cytochrome P450 2C9): 28.2 µM (inconclusive)

COc1ccc(Nc2nc(Nc3ccc(OC)cc3)nc(-n3[nH]c(=O)c(C)c3C)n2)cc1
EC50 [4]: 22.3 µM (active)

Cc1cccc(CNc2ncnc3ccc(-c4cccc(C#N)c4)cc23)c1
AC50 (Cytochrome P450 2C9): 0.794 µM (inconclusive)

Cc1ccc(F)cc1NC(=O)CCNC(=O)c1ccc([N+](=O)[O-])cc1
EC50 [4]: > 195 µM (not active)

COc1cccc(C(=O)Nc2ccc(NC(=O)c3ccco3)cn2)c1
AC50 (Cytochrome P450 2D6): 20 µM (inconclusive) | AC50 (Cytochrome P450 1A2): 25.1 µM (inconclusive)

COc1ccc2[nH]cc(CCNc3nc(-c4ccoc4)nc4ccccc34)c2c1
AC50 (Cytochrome P450 2C9): 1 µM (inconclusive)

Cn1cc(-c2nc3cnc(N4CCNCC4)nc3n(C3CC3)c2=O)c2ccccc21
AC50 (Cytochrome P450 3A4): 7.94 µM (inconclusive)

CC(=O)c1cccc(NC(=O)CN2C(S)=NC(C)(C)CC2C)c1 (centres undefined)
EC50 [4]: > 195 µM (not active)

O=C(c1cccc(F)c1)N1CCC2(CCCN(c3ccncc3)C2)CC1
AC50 (Cytochrome P450 2D6): 15.8 µM (inconclusive) | AC50 (Cytochrome P450 1A2): 31.6 µM (inconclusive)

Cc1cccc(NC(S)=NNC(=O)CC(C)O)c1C (centres undefined)
AC50 (Cytochrome P450 2C9): 0.00708 µM (inconclusive)

Cc1cccc(-c2ocnc2C(=O)N2CCN(C(=O)c3cccs3)CC2)c1
EC50 [4]: > 195 µM (not active)

c1ccc2c(c1)CCCc1cc(NCCN3CCOCC3)nnc1-2
AC50 (Cytochrome P450 3A4): 6.31 µM (inconclusive)

COc1ccc(/C=N/NC(=O)Nc2cccc3nsnc23)cc1OC
EC50 [4]: 9.51 µM (active)

CCOc1ccc(N/N=C(/C#N)C(N)=O)cc1
AC50 (Cytochrome P450 3A4): 20 µM (inconclusive) | AC50 (Cytochrome P450 2C9): 15.8 µM (inconclusive)

O=S(=O)(NCCNC/C=C\c1ccc(Br)cc1)c1cccc2cnccc12
AC50 (Cytochrome P450 2C19; read-out: AC50): 15.8 µM (inconclusive) | AC50 (Cytochrome P450 2D6): 25.1 µM (inconclusive)

COc1ccccc1CNc1ncnc2ccc(-c3cccc(C#N)c3)cc12
AC50 (Cytochrome P450 2D6): 2.51 µM (inconclusive)

O=C(O)c1ccccc1Nc1cccc(C(F)(F)F)c1 [FLUFENAMIC ACID]
AC50 (Cytochrome P450 2C9): 10 µM (inconclusive)

CCCCCCCCN[C@@H](C)[C@H](O)c1ccc(SC(C)C)cc1 [SULOCTIDIL]
AC50 (Cytochrome P450 2C19; read-out: AC50): 10 µM (inconclusive) | AC50 (Cytochrome P450 2C9): 0.00501 µM (inconclusive)
